Results on 15 compounds are retold here after US8883763B2 (Universite Joseph Fourier, priority 2010, dated 2014).

One data set has as its system HMEC cells. As to the kind of experiment: Proliferation of HMEC cells (GI50). The data set is classed as cell-based. The settings on record: Homo sapiens, 120 h, 50 μM to 1 nM for 5 days. The method in brief:
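Cells seeded at 1,000/well (10% confluence) and exposed 5 days (120 h) to compound from 1 nM up to 50–100 μM. Live cells counted by Hoechst 33342 staining under fluorescence microscopy; GI50 is concentration halving proliferation versus control, mean of two triplicate experiments.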

The next data set has as its system HeLa cells. As to the kind of experiment: Indirect immunofluorescence: effect on HeLa cells (mitotic arrest, microtubule depolymerization). The data set is classed as cell-based, human. More on the design: key to Effect on Hela at 25 μM / Effect on Hela at 100 μM / Effect on Hela at 50 and 100 μM / Effect on Hela at 50 μM: —: −: no activity on the cells at 25 μM (if there is an effect at high concentrations, this is specified in the table).; *: weak activity (MA and/or slight depolymerization of the MTs and/or slight inhibition of proliferation),; **: average activity (MA and/or moderate depolymerization of the MTs and/or moderate inhibition of proliferation),; ***: strong activity (MA and/or pronounced depolymerization of the MTs and/or pronounced inhibition of proliferation),; ****: very strong activity (MA and/or very pronounced depolymerization of the MTs and/or strong inhibition of proliferation). The settings on record: 24 hours; for Effect on Hela at 25 μM: mitotic index and/or depolymerization of the MTs. The method in brief:
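HeLa cells exposed 24 h to compound (100 μM to 50 nM; primary series 1–10 μM), DMSO controls. PFA/glutaraldehyde-fixed cells immunostained for α-tubulin, actin (phalloidin) and DNA (Hoechst); fluorescence microscopy scored phenotypes and mitotic index, with mitotic index and/or MT depolymerization evaluated at 25 μM.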

The target in another data set is T1, PP1α (PP1CA) (Oryctolagus cuniculus, UniProt P62139).
T1 construct: purchased New England Biolabs P0754
T1 sequence (P62139 whole entry): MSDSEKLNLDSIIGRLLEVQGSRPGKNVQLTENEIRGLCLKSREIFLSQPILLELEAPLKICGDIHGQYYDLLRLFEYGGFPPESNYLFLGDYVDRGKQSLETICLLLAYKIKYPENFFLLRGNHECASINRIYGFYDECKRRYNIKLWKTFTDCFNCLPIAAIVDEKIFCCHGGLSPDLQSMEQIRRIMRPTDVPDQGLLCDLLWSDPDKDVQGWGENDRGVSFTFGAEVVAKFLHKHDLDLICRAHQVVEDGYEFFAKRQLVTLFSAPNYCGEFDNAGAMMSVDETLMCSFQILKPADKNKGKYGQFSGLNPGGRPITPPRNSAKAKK
As to the kind of experiment: Protein phosphatase test (PP1 activity, DiFMUP fluorescent substrate). The data set is classed as biochemical. The settings on record: PP1CA at 80 mU, fluorescent substrate (50 μM), molecules from 50 μM to 50 nM; read-out: PP1 Inhibition IC50. The method in brief:
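PP1α (30 or 80 mU) in 100 mM Tris-HCl pH 7.5, 4 mM DTT, 0.2 mM EDTA, 0.5 mM MnCl2 was preincubated 15 min with compound (50 μM to 50 nM), then given 60 μM DiFMUP for 20 min at 37 °C. Phosphatase activity was read as fluorescence at 355-460 nm, three times in duplicate.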

The subject of the next data set is bovine brain tubulin. The data set can be described thus: In vitro tubulin polymerization test (turbidimetry at 350 nm). Conditions: molecules at 50 μM, calculated at t=3000 s, DMSO control = 100%. The data set is classed as biochemical. The method in brief: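 Bovine brain tubulin was assembled at 37 °C in BRB80 (80 mM K-PIPES pH 6.8, 1 mM MgCl2, 1 mM EGTA) with 1 mM GTP. The 50 μM tests used compounds at 50 μM, run in triplicate. Turbidity at 350 nm was read at t=3000 s and expressed relative to control taken as 100%.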

Turning to `COc1ccc(-c2nc(SCc3ccccc3)c3cc(OC)ccc3c2[N+](=O)[O-])cc1` [Compound 21, 1-(Benzylthio)-7-methoxy-3-(4-methoxyphenyl)-4-nitroisoquinoline], the melting point is 148 to 150 °C. In the data set on HMEC cells, this compound had a GI50 of over 50 µM. For the same compound, the “Effect on Hela at 25 μM” value in the data set on HeLa cells is “—”. In addition, the IC50 at PP1α (PP1CA) was in the range of 25 to 50 µM. In the data set with bovine brain tubulin, the Tubulin polymerization inhibition entry was “+++ ((+++) signifies that the molecule induces tubulin assembly inhibition in vitro of more than 50% with respect to the DMSO control.)”.
Consider `COc1ccc(-c2nc(NCc3ccccc3)c3cc(OC)ccc3c2[N+](=O)[O-])cc1` [Compound 22, N-Benzyl-N-[7-methoxy-3-(4-methoxyphenyl)-4-nitroisoquinoline-1-yl]-amine], for which the melting point fell in the range of 199 to 201 °C. This compound registered a GI50 with HMEC cells of over 50 µM. Also, the “Effect on Hela at 25 μM” value in the data set on HeLa cells is reported as “—”. The IC50 on PP1α (PP1CA) is at most 9 µM. For the same compound, in the data set on bovine brain tubulin, the Tubulin polymerization inhibition entry was “+ ((+) signifies that the molecule induces tubulin assembly inhibition in vitro comprised between 6 and 25% of the DMSO control.)”.
`COc1ccc(-c2[nH]c(=O)c3cc(OC)ccc3c2N(C)C)cc1` [Compound 23, 4-(Dimethylamino)-7-methoxy-3-(4-methoxyphenyl)isoquinoline-1(2H)-one] showed a melting point of 183 to 185 °C. The compound also yielded a GI50 in the data set with HMEC cells of 1 to 25 µM. The “Effect on Hela at 25 μM” value with HeLa cells is recorded as “***”. Besides, on PP1α (PP1CA), the IC50 was over 50 µM. The Tubulin polymerization inhibition result in the data set on bovine brain tubulin was “+ ((+) signifies that the molecule induces tubulin assembly inhibition in vitro comprised between 6 and 25% of the DMSO control.)”.
Take `COc1ccc(-c2[nH]c(=O)c3cc(OC)ccc3c2NC=O)cc1` [Compound 24, N-(7-Methoxy-3-(4-methoxyphenyl)-1-oxo-1,2-dihydroisoquinoline-4-yl)methanamide]: the melting point is over 270 °C. The compound further registered a 50% growth inhibitory concentration (GI50) with HMEC cells of 1 to 25 µM. The “Effect on Hela at 25 μM” value in the data set with HeLa cells is “****”. Moreover, the IC50 on PP1α (PP1CA) is over 50 µM. The Tubulin polymerization inhibition entry with bovine brain tubulin is “+ ((+) signifies that the molecule induces tubulin assembly inhibition in vitro comprised between 6 and 25% of the DMSO control.)”.
As to `COc1ccc(-c2[nH]c(=O)c3cc(OC)ccc3c2C=O)cc1` [Compound 25, 7-Methoxy-3-(4-methoxyphenyl)isoquinoline-1(2H)-one-4-carbaldehyde], the melting point was 232 °C. In the data set on HMEC cells, this compound registered a GI50 of 0.1 to 1 µM. Besides, the “Effect on Hela at 25 μM” value in the data set with HeLa cells is reported as “****”. On PP1α (PP1CA), the IC50 was at least 50 µM. Further, the Tubulin polymerization inhibition result with bovine brain tubulin is recorded as “+++ ((+++) signifies that the molecule induces tubulin assembly inhibition in vitro of more than 50% with respect to the DMSO control.)”.
For `COc1ccc(-c2nc(Cl)c3cc(OC)ccc3c2Br)cc1` [Compound 26, 4-Bromo-1-chloro-7-methoxy-3-(4-methoxyphenyl)isoquinoline], the melting point was in the range of 164 to 166 °C. In the data set with HMEC cells, the GI50 is over 50 µM. For the same compound, the “Effect on Hela at 25 μM” value in the data set on HeLa cells is “—”. Moreover, at PP1α (PP1CA), the IC50 was over 50 µM. In addition, in the data set on bovine brain tubulin, the Tubulin polymerization inhibition entry is on record as “— ((−) signifies that the molecule induces little or no tubulin assembly inhibition in vitro: 0+ or − −5% of the DMSO control.)”.
On to `COc1ccc(-c2nc(OC)c3cc(OC)ccc3c2Br)cc1` [Compound 27, 4-Bromo-1,7-Dimethoxy-3-(4-methoxyphenyl)isoquinoline], for which the melting point was 138 to 140 °C. The compound also gave a GI50 in the data set on HMEC cells of 25 to 50 µM. In addition, the “Effect on Hela at 25 μM” value with HeLa cells is listed as “—”. At PP1α (PP1CA), the IC50 was over 50 µM. In the data set on bovine brain tubulin, the Tubulin polymerization inhibition entry was “+ ((+) signifies that the molecule induces tubulin assembly inhibition in vitro comprised between 6 and 25% of the DMSO control.)”.
As to `C#CCn1c(-c2ccc(OC)cc2)c([N+](=O)[O-])c2ccc(OC)cc2c1=O` [Compound 28, 7-Methoxy-3-(4-methoxyphenyl)-4-nitro-2-(propargyl)isoquinolin-1(2H)-one], the melting point fell in the range of 162 to 164 °C. In the data set on HMEC cells, this compound had a GI50 of over 50 µM. Moreover, in the data set with HeLa cells, the “Effect on Hela at 25 μM” value is given as “—”. The “Effect on Hela at 50 and 100 μM” value in the data set on HeLa cells (50 and 100 μM) is “**”. For the same compound, on PP1α (PP1CA), the IC50 is 25 to 50 µM. Besides, the Tubulin polymerization inhibition result in the data set with bovine brain tubulin was “— ((−) signifies that the molecule induces little or no tubulin assembly inhibition in vitro: 0+ or − −5% of the DMSO control.)”.
`C#CCOc1nc(-c2ccc(OC)cc2)c([N+](=O)[O-])c2ccc(OC)cc12` [Compound 29, 7-Methoxy-3-(4-methoxyphenyl)-4-nitro-1-(prop-2ynyloxy)isoquinoline] registered a melting point of 177 to 179 °C. In addition, the GI50 in the data set on HMEC cells is over 50 µM. Further, the “Effect on Hela at 25 μM” value in the data set with HeLa cells was “—”. For the same compound, on PP1α (PP1CA), the IC50 was at least 50 µM. Also, in the data set with bovine brain tubulin, the Tubulin polymerization inhibition entry was “+ ((+) signifies that the molecule induces tubulin assembly inhibition in vitro comprised between 6 and 25% of the DMSO control.)”.
`COc1ccc(-c2c([N+](=O)[O-])c3ccc(OC)cc3c(=O)n2CC#N)cc1` [Compound 30, 2-(7-Methoxy-3-(4-methoxyphenyl)-4-nitro-1-oxoisoquinolin-2(1H)-yl)ethanenitrile]: the melting point lay in the range of 194 to 196 °C. This compound also showed a GI50 in the data set with HMEC cells of over 50 µM. For the same compound, in the data set on HeLa cells, the “Effect on Hela at 25 μM” value was “—”. Besides, at PP1α (PP1CA), the IC50 was at least 50 µM. The Tubulin polymerization inhibition result in the data set with bovine brain tubulin is “+ ((+) signifies that the molecule induces tubulin assembly inhibition in vitro comprised between 6 and 25% of the DMSO control.)”.
`COc1ccc(-c2nc(OCC#N)c3cc(OC)ccc3c2[N+](=O)[O-])cc1` [Compound 31, 2-(7-Methoxy-3-(4-methoxyphenyl)-4-nitroisoquinolin-1-yloxy)ethanenitrile] returned a melting point of 192 to 194 °C. Besides, the GI50 in the data set with HMEC cells is over 50 µM. Further, in the data set with HeLa cells, the “Effect on Hela at 25 μM” value is on record as “—”. In addition, on PP1α (PP1CA), the IC50 was over 50 µM. Moreover, in the data set on bovine brain tubulin, the Tubulin polymerization inhibition result is “++ ((++) signifies that the molecule induces tubulin assembly inhibition in vitro comprised between 26 and 50% of the DMSO control.)”.
Compound `COc1ccc2cc(-c3ccc(Br)cc3)[nH]c(=O)c2c1` [Compound 32, 3-(4-Bromophenyl)-7-methoxyisoquinolin-1(2H)-one] came in with a melting point of over 250 °C. The compound further gave a GI50 in the data set on HMEC cells of 0.1 to 1 µM. The “Effect on Hela at 25 μM” value in the data set with HeLa cells is given as “****”. In addition, at PP1α (PP1CA), the IC50 fell in the range of 10 to 24 µM. Also, the Tubulin polymerization inhibition entry in the data set on bovine brain tubulin is reported as “— ((−) signifies that the molecule induces little or no tubulin assembly inhibition in vitro: 0+ or − −5% of the DMSO control.)”.
`COc1ccc2cc(-c3ccc(C#C[Si](C)(C)C)cc3)[nH]c(=O)c2c1` [Compound 33, 7-Methoxy-3-(4-((trimethylsilyl)ethynyl)phenyl)isoquinolin-1(2H)-one] showed a melting point of 133 to 135 °C. Further, in the data set on HMEC cells, the GI50 was in the range of 25 to 50 µM. In the data set with HeLa cells, the “Effect on Hela at 25 μM” value is “—”. The IC50 on PP1α (PP1CA) is over 50 µM. Further, in the data set with bovine brain tubulin, the Tubulin polymerization inhibition result is on record as “— ((−) signifies that the molecule induces little or no tubulin assembly inhibition in vitro: 0+ or − −5% of the DMSO control.)”.
Consider `COc1ccc2c([N+](=O)[O-])c(-c3ccc(Br)cc3)[nH]c(=O)c2c1` [Compound 34, 3-(4-Bromophenyl)-7-methoxy-4-nitroisoquinolin-1(2H)-one], for which the melting point was in the range of 222 to 224 °C. For the same compound, the GI50 in the data set on HMEC cells is at most 0.1 µM. For the same compound, the “Effect on Hela at 25 μM” value in the data set on HeLa cells was “***”. In addition, the IC50 on PP1α (PP1CA) is 25 to 50 µM. The Tubulin polymerization inhibition entry in the data set with bovine brain tubulin was “+++ ((+++) signifies that the molecule induces tubulin assembly inhibition in vitro of more than 50% with respect to the DMSO control.)”.
Consider `COc1ccc2c([N+](=O)[O-])c(-c3ccc(C#C[Si](C)(C)C)cc3)[nH]c(=O)c2c1` [Compound 35, 7-Methoxy-4-nitro-3-(4-((trimethylsilyl)ethynyl)phenyl)isoquinolin-1(2H)-one], for which the melting point fell in the range of 178 to 180 °C. For the same compound, the GI50 in the data set with HMEC cells was at most 0.1 µM. The “Effect on Hela at 25 μM” value in the data set with HeLa cells was “***”. Also, the IC50 at PP1α (PP1CA) lay within 10 to 24 µM. Further, in the data set with bovine brain tubulin, the Tubulin polymerization inhibition result is listed as “— ((−) signifies that the molecule induces little or no tubulin assembly inhibition in vitro: 0+ or − −5% of the DMSO control.)”.
